PMC12376232 (Journal of the Colleges of Medicine of South Africa, 2023)

Key:
rodents = conditions: in vivo
benign thyroid diseases = experiment: I-131 therapy of benign thyroid diseases, retrospective analysis; type: in vivo; conditions: 127 patients
Experimental: A retrospective analysis was carried out for patients with benign thyroid conditions who underwent single or double I-131 therapy for benign thyroid disease at our department between January 2009 and December 2021. The thyroid function status of the patients was also documented prior to discharge.

## CC(C)c1cccc(C(C)C)c1O [Propofol, propofol]
rodents
  effect on glucose metabolism: decreased cerebral glucose metabolism

## FCOC(C(F)(F)F)C(F)(F)F [sevoflurane]
rodents
  effect on glucose metabolism: induced hypoglycaemia

## CCCC(C)C1(CC)C(=O)NC(=O)NC1=O (stereo not drawn) [Pentobarbital, pentobarbital]
rodents
  effect on glucose metabolism: does not alter the blood glucose metabolism
  safety margin for rodent anaesthesia: lower safety margin

## [131IH] [RAI]
Benign thyroid diseases; after single RAI therapy, n = 33
  patients who required retreatment as they remained hyperthyroid: 26%
Benign thyroid diseases; empirical dose 10 mCi to 40 mCi, n = 94
  patients who responded to the single RAI therapy (euthyroid or hypothyroid): Seventy-four per cent
Benign thyroid diseases; single or double I-131 therapy, n = 40
  patients euthyroid on discharge: 31%
Benign thyroid diseases; single or double I-131 therapy, n = 83
  patients hypothyroid on discharge: 66%

## FC(F)OC(Cl)C(F)(F)F (stereo not drawn) [isoflurane]
rodents
  effect on glucose metabolism: induced hypoglycaemia
